Data from ChEMBL document CHEMBL1201862, “PubChem BioAssay data set” (2004).
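1) Cells in 96-well plates. 2) Compound, 48 h, 5 concentrations. 3) Linear interpolation between surrounding doses. 4) Unreached endpoint = highest concentration. The concentration for 50% growth inhibition is given as GI50.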 Active and inactive are the calls of the source. Rule as the data show it: active = GI50 up to about 1.1 µM and inactive = higher.

Legend:
Assay in all cases: DTP human tumour cell line panel, 48 h
MDA-N = system: MDA-N
MCF7 = system: MCF7
RPMI-8226 = system: RPMI-8226
MDA-MB-231 = system: MDA-MB-231
K562 = system: K562
SW-620 = system: SW-620
A549 = system: A549
Malme-3M = system: Malme-3M
IGROV-1 = system: IGROV-1
SR = system: SR
NCI-H522 = system: NCI-H522
HOP-92 = system: HOP-92
786-0 = system: 786-0
NCI-H226 = system: NCI-H226
SK-OV-3 = system: SK-OV-3
EKVX = system: EKVX
UACC-62 = system: UACC-62
NCI-H23 = system: NCI-H23

Compound | GI50 (MDA-N) | GI50 (MCF7) | GI50 (RPMI-8226) | GI50 (MDA-MB-231) | GI50 (K562) | GI50 (SW-620) | GI50 (A549) | GI50 (Malme-3M) | GI50 (IGROV-1) | GI50 (SR) | GI50 (NCI-H522) | GI50 (HOP-92) | GI50 (786-0) | GI50 (NCI-H226) | GI50 (SK-OV-3) | GI50 (EKVX) | GI50 (UACC-62) | GI50 (NCI-H23)
COCc1nc2c(OC)c(-c3nc4ccc(N5CCN(C)CC5)cc4[nH]3)cc(OC)c2[nH]1 | 33.1 µM (inactive) | 35.6 µM (inactive) | 32.1 µM (inactive) | 30.2 µM (inactive) | 38.8 µM (inactive) | 40.6 µM (inactive) | 48.9 µM (inactive) | 16.9 µM (inactive) | 97.9 µM (inactive) | 19.7 µM (inactive) | 31.1 µM (inactive) | > 100 µM (inactive) | 40.1 µM (inactive) | > 100 µM (inactive) | 52.1 µM (inactive) | 99.8 µM (inactive) | 80.7 µM (inactive) | 83.4 µM (inactive)
CN(C)c1ccc(-c2ccc(N(C)C)c3n[se]nc23)c2n[se]nc12 | > 100 µM (inactive) | > 100 µM (inactive) | > 100 µM (inactive) | > 100 µM (inactive) | > 100 µM (inactive) | > 100 µM (inactive) | > 100 µM (inactive) | > 100 µM (inactive) | > 100 µM (inactive) | > 100 µM (inactive) | > 100 µM (inactive) | > 100 µM (inactive) | > 100 µM (inactive) | > 100 µM (inactive) | > 100 µM (inactive) | > 100 µM (inactive) | > 100 µM (inactive) | > 100 µM (inactive)
COc1ccc2nc3c([N+](=O)[O-])ccc4c3c(c2c1)N=CN4CCN(C)C | 4.71 µM (inactive) | 3.3 µM (inactive) | 2.24 µM (inactive) | 1.84 µM (inactive) | 0.726 µM (active) | 3.3 µM (inactive) | 3.44 µM (inactive) | 3.92 µM (inactive) | 2.47 µM (inactive) | 0.168 µM (active) | 2.03 µM (inactive) | 5.06 µM (inactive) | 3.61 µM (inactive) | 4.34 µM (inactive) | 9.27 µM (inactive) | 4.65 µM (inactive) | 8.71 µM (inactive) | 7.55 µM (inactive)
CCN(CC)C(=O)Cn1c(C)cc2ccccc21 | > 100 µM (inactive) | > 100 µM (inactive) | > 100 µM (inactive) | > 100 µM (inactive) | > 100 µM (inactive) | > 100 µM (inactive) | > 100 µM (inactive) | > 100 µM (inactive) | > 100 µM (inactive) | > 100 µM (inactive) | > 100 µM (inactive) | > 100 µM (inactive) | > 100 µM (inactive) | > 100 µM (inactive) | > 100 µM (inactive) | > 100 µM (inactive) | > 100 µM (inactive) | > 100 µM (inactive)
O/N=C(/CC(O)(C(F)(F)F)C(F)(F)F)c1ccccc1 | > 10 µM (inactive) | > 10 µM (inactive) | > 10 µM (inactive) | > 10 µM (inactive) | > 10 µM (inactive) | > 10 µM (inactive) | > 10 µM (inactive) | > 10 µM (inactive) | > 10 µM (inactive) | > 10 µM (inactive) | > 10 µM (inactive) | > 10 µM (inactive) | > 10 µM (inactive) | > 10 µM (inactive) | > 10 µM (inactive) | > 10 µM (inactive) | > 10 µM (inactive) | > 10 µM (inactive)
COc1ccc(/C(C)=N/NC(=O)c2ccncc2)c(OC)c1 | > 10 µM (inactive) | > 10 µM (inactive) | > 10 µM (inactive) | > 10 µM (inactive) | > 10 µM (inactive) | > 10 µM (inactive) | > 10 µM (inactive) | > 10 µM (inactive) | > 10 µM (inactive) | > 10 µM (inactive) |  | > 10 µM (inactive) | > 10 µM (inactive) | > 10 µM (inactive) | > 10 µM (inactive) | > 10 µM (inactive) | > 10 µM (inactive) | > 10 µM (inactive)
O=C1C=Cc2c(Br)sc(Br)c21 | 30.1 µM (inactive) | 19.3 µM (inactive) | 10.3 µM (inactive) | 21.7 µM (inactive) | 23 µM (inactive) | 18 µM (inactive) | 55.1 µM (inactive) | 23.1 µM (inactive) | 18.6 µM (inactive) | 24.7 µM (inactive) | 26.1 µM (inactive) | 24.7 µM (inactive) | 34.9 µM (inactive) |  | 88.1 µM (inactive) | 26.1 µM (inactive) | 23.7 µM (inactive) | 26.7 µM (inactive)
CN1CCN(Cn2nc(-c3ccccc3)n(/N=C/c3ccc(-c4ccc(Cl)cc4Cl)o3)c2=S)CC1 | 13.4 µM (inactive) | 12.4 µM (inactive) | 8.61 µM (inactive) | 13.9 µM (inactive) | 2.39 µM (inactive) | 11.8 µM (inactive) |  |  | 8.97 µM (inactive) | 1.51 µM (inactive) | 28.2 µM (inactive) | 8.95 µM (inactive) | 13.1 µM (inactive) | 20 µM (inactive) | 13.5 µM (inactive) | 30.1 µM (inactive) |  | 18.7 µM (inactive)
O=C1NC(=S)NC(=O)C1=Cc1cccc2cc3ccccc3cc12 | 2.19 µM (inactive) | 1.8 µM (inactive) | 1.24 µM (inactive) | 2.01 µM (inactive) | 2.07 µM (inactive) | 2.58 µM (inactive) | 3.08 µM (inactive) | 2.11 µM (inactive) | 1.67 µM (inactive) | 1.44 µM (inactive) | 1.91 µM (inactive) | 1.66 µM (inactive) | 1.61 µM (inactive) | 2.03 µM (inactive) | 2.83 µM (inactive) | 2.91 µM (inactive) | 1.87 µM (inactive) | 1.87 µM (inactive)
C/C(=N\C1CCCCC1)c1ccccc1O | > 100 µM (inactive) | > 100 µM (inactive) | 87.5 µM (inactive) | > 100 µM (inactive) | > 100 µM (inactive) | > 100 µM (inactive) | > 100 µM (inactive) | > 100 µM (inactive) | > 100 µM (inactive) | > 100 µM (inactive) | 34.2 µM (inactive) | > 100 µM (inactive) | > 100 µM (inactive) | > 100 µM (inactive) | > 100 µM (inactive) | > 100 µM (inactive) | > 100 µM (inactive) | > 100 µM (inactive)
c1ccc2cc(CN3CCC(C4CCN(Cc5ccc6ccccc6c5)CC4)CC3)ccc2c1 | 1.96 µM (inactive) | 2.06 µM (inactive) | 2.48 µM (inactive) | 4.82 µM (inactive) | 0.692 µM (active) | 2.74 µM (inactive) | 4.2 µM (inactive) | 1.19 µM (inactive) | 6.4 µM (inactive) | 3.24 µM (inactive) | 1.89 µM (inactive) | 4.1 µM (inactive) | 2.45 µM (inactive) | 11.4 µM (inactive) | 10.1 µM (inactive) | 8.24 µM (inactive) | 2.03 µM (inactive) | 11.4 µM (inactive)
CSc1c(CC(=O)Nc2ccc(Cl)cc2)n(Cc2ccccc2)c2ccccc12 | 76.4 µM (inactive) | 18.6 µM (inactive) | 67.5 µM (inactive) | 14.8 µM (inactive) | 28 µM (inactive) | > 100 µM (inactive) | 43.5 µM (inactive) | 57.7 µM (inactive) | 26.5 µM (inactive) | 23 µM (inactive) | 18.1 µM (inactive) | 13.7 µM (inactive) | 11.3 µM (inactive) | 20.8 µM (inactive) | 41.4 µM (inactive) | 12.1 µM (inactive) | 18.1 µM (inactive) | 29.1 µM (inactive)
CC(=O)NCCC1CN(C(=O)/C=C/I)c2ccccc21 (stereo unspecified) | 3.08 µM (inactive) | 0.308 µM (active) | 0.292 µM (active) | 2.91 µM (inactive) | 3.73 µM (inactive) | 2.1 µM (inactive) | 17.2 µM (inactive) | 13 µM (inactive) | 6.55 µM (inactive) | 2.9 µM (inactive) | 1.39 µM (inactive) | 1.9 µM (inactive) | 1.32 µM (inactive) | 14.5 µM (inactive) | 14.7 µM (inactive) | 15.4 µM (inactive) | 5.07 µM (inactive) | 11.9 µM (inactive)
CCN(CC)c1ccc(C2NC(=O)c3ccccc3N2)cc1 (stereo unspecified) | 0.847 µM (active) | 3.73 µM (inactive) | 3.37 µM (inactive) | 1.88 µM (inactive) | 1.27 µM (inactive) | 1.5 µM (inactive) | 3.27 µM (inactive) | > 28.4 µM (inactive) | 5.24 µM (inactive) | 0.557 µM (active) | 14.8 µM (inactive) | 3.05 µM (inactive) | 2.99 µM (inactive) | 2.98 µM (inactive) | 3.74 µM (inactive) | 5.24 µM (inactive) | 3.1 µM (inactive) | 2.77 µM (inactive)
O=C1C=CC2(C=C1)O[C@H](COCc1ccccc1)[C@@H](COCc1ccccc1)O2 | 1.52 µM (inactive) | 0.313 µM (active) | 0.42 µM (active) | 3.65 µM (inactive) | 2.25 µM (inactive) | 0.271 µM (active) | 15.3 µM (inactive) | 2.54 µM (inactive) | 1.61 µM (inactive) | 0.251 µM (active) |  | 1.01 µM (active) | 0.627 µM (active) | 1.82 µM (inactive) | 15.7 µM (inactive) | 1.59 µM (inactive) | 1.88 µM (inactive) | 1.77 µM (inactive)
CO[C@H]1[C@@H](O)[C@@H](C)O[C@@H](O[C@H]2CC[C@@]3(C)[C@H](CC[C@@H]4[C@@H]3CC[C@]3(C)[C@@H](C5=CC(=O)OC5)CC[C@]43O)C2)[C@@H]1O [ODOROSIDE H] | 0.00767 µM (active) | 0.00773 µM (active) | 0.0111 µM (active) | 0.0413 µM (active) |  | < 0.0025 µM (active) | 0.00288 µM (active) | 0.00441 µM (active) | 0.00498 µM (active) | 0.00304 µM (active) | < 0.0025 µM (active) | 0.0127 µM (active) | 0.00453 µM (active) | 0.0488 µM (active) | 0.00964 µM (active) | 0.00474 µM (active) | 0.00689 µM (active) | 0.00462 µM (active)
